# Data published in paper PMC8274934, “FisB relies on homo-oligomerization and lipid binding to catalyze membrane fission in bacteria” (PLoS Biology, 2021).
# Where a chain is given by its changes, count along the chain named.
# What was measured:
# [1] = biological target: His6-FisB ECD (recombinant soluble extracytoplasmic domain of fission protein B, wild type) (B. subtilis); assay: negative-stain electron microscopy; high molecular weight SEC fractions on carbon-coated grids, 2% uranyl acetate
# [2] = biological target: T1, iFluor555-FisB ECD (Bacillus subtilis, UniProt O32131, G123C/K168D/K170E); assay: liposome co-flotation, fluorescence of gel band; type: binding; details: apparent; in total lipid concentration; liposomes 45 mole % CL, 55% PC; 100 nM labelled protein; room temperature, 1 h; read-out: KdKK
# T1 construct: iFluor555-maleimide on G123C; forms soluble oligomers
# T1 sequence (O32131 39-254 G123C/K168D/K170E limits assumed): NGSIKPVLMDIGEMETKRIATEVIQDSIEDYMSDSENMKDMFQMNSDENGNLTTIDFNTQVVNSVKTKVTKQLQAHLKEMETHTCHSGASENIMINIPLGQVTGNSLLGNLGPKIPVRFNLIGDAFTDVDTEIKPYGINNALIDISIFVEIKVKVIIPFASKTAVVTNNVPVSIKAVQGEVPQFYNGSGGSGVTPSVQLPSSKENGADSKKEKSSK
# [3] = biological target: T2, iFluor555-FisB ECD (Bacillus subtilis, UniProt O32131, G123C); assay: liposome co-flotation, fluorescence of gel band; type: binding; details: apparent, in total lipid concentration, 55% PC, 100 nM labelled protein, room temperature, 1 h
# T2 construct: iFluor555-maleimide on G123C; forms soluble oligomers
# T2 sequence (O32131 39-254 G123C limits assumed): T1 sequence (O32131 39-254 G123C/K168D/K170E limits assumed) with D130K, E132K
substance,measurement,setting,value
"His6-FisB ECD (recombinant soluble extracytoplasmic domain of fission protein B, wild type) (domain or fragment)",stoichiometry N,[1],40 copies
cardiolipin [CL],Kd,[2],9.1 µM
same,Kd,[3]; liposomes 45 mole % CL,1 µM
phosphatidylglycerol [PG],Kd,[3]; liposomes 45 mole % PG,3.6 µM
